Experimental data as given in article PMC3596387, “Tripolin A, a Novel Small-Molecule Inhibitor of Aurora A Kinase, Reveals New Regulation of HURP's Distribution on Microtubules” (PLoS ONE, 2013).
Like-named read-outs stand apart in the source and are kept apart here.

How the values were obtained:
Format in all cases: biochemical
Aurora A = target: T1, Aurora A (Homo sapiens, UniProt O14965); assay: in vitro kinase assay (Z'LYTE Ser/Thr […] peptide; Easylite luminescence ATP detection)
T1 construct: gene AURKA; full length in pET21d, 6xHis tag (Aurora A-6xHis), E. coli, Ni-NTA purified
T1 sequence (O14965 1-403): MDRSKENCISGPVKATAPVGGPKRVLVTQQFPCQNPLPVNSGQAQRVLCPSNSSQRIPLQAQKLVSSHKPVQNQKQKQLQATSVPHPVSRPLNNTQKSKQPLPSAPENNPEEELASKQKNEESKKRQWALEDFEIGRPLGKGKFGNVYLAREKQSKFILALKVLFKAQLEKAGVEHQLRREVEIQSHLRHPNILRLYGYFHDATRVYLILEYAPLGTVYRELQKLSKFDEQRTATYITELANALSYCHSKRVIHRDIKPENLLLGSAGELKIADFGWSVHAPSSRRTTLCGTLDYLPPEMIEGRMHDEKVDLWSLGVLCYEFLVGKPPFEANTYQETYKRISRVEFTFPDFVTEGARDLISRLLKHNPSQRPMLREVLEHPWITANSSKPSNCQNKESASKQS

FGFR = target: T2, FGFR; assay: Z'LYTE kinase selectivity assay
T2 construct: gene FGFR1; selectivity panel
Text: Z'LYTE kinase selectivity assay on FGFR

IGF1R = target: T3, IGF1R (Homo sapiens, UniProt P08069); assay: Z'LYTE kinase selectivity assay
T3 construct: selectivity panel
Text: Z'LYTE kinase selectivity assay on IGF1R

KDR = target: T4, KDR (Homo sapiens, UniProt P35968); assay: Z'LYTE kinase selectivity assay
T4 construct: selectivity panel
Text: Z'LYTE kinase selectivity assay on KDR

EGFR = target: T5, EGFR (Homo sapiens, UniProt P00533); assay: Z'LYTE kinase selectivity assay
T5 construct: selectivity panel
Text: Z'LYTE kinase selectivity assay on EGFR

Aurora B = target: T6, Aurora B (Homo sapiens, UniProt Q96GD4); assay: Z'LYTE kinase selectivity assay
T6 construct: gene AURKB; selectivity panel
Text: Z'LYTE kinase selectivity assay on Aurora B

T6 sequence (Q96GD4 whole entry): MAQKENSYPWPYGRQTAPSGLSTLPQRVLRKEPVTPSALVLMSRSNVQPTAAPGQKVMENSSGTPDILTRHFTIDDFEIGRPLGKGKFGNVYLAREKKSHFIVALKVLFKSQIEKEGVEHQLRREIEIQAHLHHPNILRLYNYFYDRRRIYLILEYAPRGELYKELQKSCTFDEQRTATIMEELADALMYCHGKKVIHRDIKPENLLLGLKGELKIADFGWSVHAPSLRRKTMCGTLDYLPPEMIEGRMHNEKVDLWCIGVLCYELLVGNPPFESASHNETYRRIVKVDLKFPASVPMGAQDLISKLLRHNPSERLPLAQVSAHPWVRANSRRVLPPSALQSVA
T5 sequence (P00533 25-1210): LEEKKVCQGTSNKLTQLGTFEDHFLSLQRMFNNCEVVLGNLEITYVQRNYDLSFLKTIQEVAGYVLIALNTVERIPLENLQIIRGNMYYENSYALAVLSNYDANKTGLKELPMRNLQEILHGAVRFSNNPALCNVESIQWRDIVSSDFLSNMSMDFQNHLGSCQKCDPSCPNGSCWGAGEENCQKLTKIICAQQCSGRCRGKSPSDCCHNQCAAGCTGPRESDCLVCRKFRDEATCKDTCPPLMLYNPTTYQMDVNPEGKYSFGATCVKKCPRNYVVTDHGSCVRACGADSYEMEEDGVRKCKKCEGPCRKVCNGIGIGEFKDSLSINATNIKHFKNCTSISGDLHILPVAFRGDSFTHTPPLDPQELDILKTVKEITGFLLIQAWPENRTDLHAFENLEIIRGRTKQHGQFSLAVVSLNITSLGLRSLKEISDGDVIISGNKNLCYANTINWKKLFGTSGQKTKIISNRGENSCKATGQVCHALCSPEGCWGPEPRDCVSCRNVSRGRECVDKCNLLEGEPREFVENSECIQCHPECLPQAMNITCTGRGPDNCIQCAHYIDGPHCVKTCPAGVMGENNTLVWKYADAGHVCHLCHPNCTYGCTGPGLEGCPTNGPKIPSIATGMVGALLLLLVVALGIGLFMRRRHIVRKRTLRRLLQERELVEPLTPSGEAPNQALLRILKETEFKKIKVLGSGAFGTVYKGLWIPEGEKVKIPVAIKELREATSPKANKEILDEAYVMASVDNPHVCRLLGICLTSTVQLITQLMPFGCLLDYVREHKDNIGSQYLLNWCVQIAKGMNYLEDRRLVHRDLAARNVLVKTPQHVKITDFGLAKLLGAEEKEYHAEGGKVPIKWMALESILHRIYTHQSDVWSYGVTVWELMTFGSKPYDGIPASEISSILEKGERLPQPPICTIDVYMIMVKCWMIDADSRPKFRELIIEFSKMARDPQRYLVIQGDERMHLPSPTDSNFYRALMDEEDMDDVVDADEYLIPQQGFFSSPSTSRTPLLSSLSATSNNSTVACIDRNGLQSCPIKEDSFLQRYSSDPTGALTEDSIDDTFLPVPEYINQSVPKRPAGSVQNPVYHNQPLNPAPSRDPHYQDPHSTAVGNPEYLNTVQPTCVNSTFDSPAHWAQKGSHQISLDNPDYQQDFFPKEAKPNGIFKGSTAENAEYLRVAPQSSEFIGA
T4 sequence (P35968 20-1356): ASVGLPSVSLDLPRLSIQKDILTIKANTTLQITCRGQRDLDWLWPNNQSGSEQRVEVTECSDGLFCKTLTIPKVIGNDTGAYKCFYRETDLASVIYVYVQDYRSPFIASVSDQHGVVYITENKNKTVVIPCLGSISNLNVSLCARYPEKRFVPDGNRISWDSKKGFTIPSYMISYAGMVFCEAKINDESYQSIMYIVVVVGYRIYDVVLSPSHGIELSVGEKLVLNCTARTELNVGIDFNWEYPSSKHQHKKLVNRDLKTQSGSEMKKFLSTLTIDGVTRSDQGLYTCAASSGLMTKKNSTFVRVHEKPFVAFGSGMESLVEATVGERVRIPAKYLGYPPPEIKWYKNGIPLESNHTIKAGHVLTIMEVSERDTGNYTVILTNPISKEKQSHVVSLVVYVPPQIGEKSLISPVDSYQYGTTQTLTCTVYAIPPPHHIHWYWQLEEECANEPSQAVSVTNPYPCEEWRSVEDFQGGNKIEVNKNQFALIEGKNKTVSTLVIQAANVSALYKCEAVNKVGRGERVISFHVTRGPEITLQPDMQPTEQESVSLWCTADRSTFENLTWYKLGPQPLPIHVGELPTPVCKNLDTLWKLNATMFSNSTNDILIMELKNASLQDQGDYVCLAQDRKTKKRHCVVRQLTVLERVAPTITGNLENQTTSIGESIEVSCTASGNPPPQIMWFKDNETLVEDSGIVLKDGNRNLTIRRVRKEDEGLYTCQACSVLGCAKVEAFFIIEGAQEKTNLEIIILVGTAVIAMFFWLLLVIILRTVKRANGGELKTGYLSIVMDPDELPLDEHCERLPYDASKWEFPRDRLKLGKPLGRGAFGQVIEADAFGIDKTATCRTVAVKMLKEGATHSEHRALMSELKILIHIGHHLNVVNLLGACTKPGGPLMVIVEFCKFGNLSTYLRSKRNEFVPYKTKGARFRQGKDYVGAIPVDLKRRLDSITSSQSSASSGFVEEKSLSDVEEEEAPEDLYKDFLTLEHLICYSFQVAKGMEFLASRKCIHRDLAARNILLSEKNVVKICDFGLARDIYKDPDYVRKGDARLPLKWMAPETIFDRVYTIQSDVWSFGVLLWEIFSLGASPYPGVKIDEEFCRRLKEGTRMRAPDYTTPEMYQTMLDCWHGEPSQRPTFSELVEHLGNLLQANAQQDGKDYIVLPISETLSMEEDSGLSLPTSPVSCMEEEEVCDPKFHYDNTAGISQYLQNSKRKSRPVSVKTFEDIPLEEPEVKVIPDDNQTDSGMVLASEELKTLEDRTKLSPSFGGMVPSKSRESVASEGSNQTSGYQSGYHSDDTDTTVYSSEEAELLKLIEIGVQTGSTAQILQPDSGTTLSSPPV
T3 sequence (P08069 31-736): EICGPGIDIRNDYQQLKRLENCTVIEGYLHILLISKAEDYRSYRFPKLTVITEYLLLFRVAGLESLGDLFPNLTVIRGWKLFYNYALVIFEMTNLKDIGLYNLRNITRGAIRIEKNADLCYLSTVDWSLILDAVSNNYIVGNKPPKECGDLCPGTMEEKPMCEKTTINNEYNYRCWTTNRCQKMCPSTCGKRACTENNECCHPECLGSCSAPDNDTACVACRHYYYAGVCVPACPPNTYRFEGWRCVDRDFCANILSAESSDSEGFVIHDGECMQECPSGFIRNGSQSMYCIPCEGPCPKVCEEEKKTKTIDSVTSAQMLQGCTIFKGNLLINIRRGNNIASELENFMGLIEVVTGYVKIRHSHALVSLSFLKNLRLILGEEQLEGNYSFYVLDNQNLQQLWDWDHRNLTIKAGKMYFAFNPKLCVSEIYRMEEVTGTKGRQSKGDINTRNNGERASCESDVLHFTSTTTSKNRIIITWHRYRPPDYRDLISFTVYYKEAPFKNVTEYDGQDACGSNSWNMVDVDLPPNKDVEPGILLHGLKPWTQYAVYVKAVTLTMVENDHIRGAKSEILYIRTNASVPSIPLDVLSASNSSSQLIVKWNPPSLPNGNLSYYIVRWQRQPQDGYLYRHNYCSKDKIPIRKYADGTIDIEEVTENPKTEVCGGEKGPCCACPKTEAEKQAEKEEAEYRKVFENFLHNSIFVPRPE
T3 sequence (P08069 741-1367): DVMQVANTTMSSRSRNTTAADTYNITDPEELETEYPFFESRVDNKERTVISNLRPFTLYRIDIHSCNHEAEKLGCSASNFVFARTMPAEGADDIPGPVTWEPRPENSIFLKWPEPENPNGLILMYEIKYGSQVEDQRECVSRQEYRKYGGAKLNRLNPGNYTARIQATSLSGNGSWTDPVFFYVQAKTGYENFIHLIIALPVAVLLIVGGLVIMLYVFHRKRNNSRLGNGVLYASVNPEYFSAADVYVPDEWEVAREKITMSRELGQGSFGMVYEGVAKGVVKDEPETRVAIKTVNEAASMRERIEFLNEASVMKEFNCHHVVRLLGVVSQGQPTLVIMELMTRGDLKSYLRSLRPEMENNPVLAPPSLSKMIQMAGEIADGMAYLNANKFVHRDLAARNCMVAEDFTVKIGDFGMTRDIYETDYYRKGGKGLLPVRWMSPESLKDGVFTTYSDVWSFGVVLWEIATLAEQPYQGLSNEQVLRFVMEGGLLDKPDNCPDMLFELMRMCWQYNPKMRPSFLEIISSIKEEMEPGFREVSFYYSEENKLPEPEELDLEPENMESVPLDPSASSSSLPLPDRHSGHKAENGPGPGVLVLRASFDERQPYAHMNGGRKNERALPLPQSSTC

IC50 (Aurora A; read-out: Tripolin A) [µM] | IC50 (FGFR; read-out: Tripolin A) [µM] | IC50 (IGF1R; read-out: Tripolin A) [µM] | IC50 (KDR; read-out: Tripolin A) [µM] | IC50 (EGFR; read-out: Tripolin A) [µM] | IC50 (Aurora B; read-out: Tripolin A) [µM] | SMILES | IC50 (Aurora A; read-out: Tripolin B) [µM] | IC50 (FGFR; read-out: Tripolin B) [µM] | IC50 (IGF1R; read-out: Tripolin B) [µM] | IC50 (KDR; read-out: Tripolin B) [µM] | IC50 (EGFR; read-out: Tripolin B) [µM] | IC50 (Aurora B; read-out: Tripolin B) [µM]
1.5 | 33.4 | 14.9 | 17.9 | 11 | 7 | O=C1Nc2ccccc2C1=Cc1cc(O)ccc1O [Tripolin A, 3-(2,5-Dihydroxy-benzylidene)-1,3-dihydro-indol-1-one] | – | – | – | – | – | –
– | – | – | – | – | – | O=C1Nc2ccccc2C1=Cc1cnc[nH]1 [Tripolin B, 3-(3H-Imidazol-4-ylmethylene)-1,3-dihydro-indol-2-one] | 2.5 | 38 | 13.2 | 6.5 | 71.7 | 6
